Measurements published in US12065436B2, “Cardiac sarcomere inhibitors” (Cytokinetics, Inc., priority 2018, dated 2024).

Target: bovine cardiac myofibrils (full-length cardiac myosin ATPase in the native sarcomere) (Bos taurus (Bovine), UniProt Q9BE39)
Assay: Skinned bovine cardiac myofibril ATPase assay (PK/LDH-coupled)
Type: biochemical
Conditions: Ca2+ activating to 75% of maximal rate; for CDMF75 IC15: concentration giving 15% inhibition; for IC50: read-out: CDMF75 IC50
How it was run: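 Inhibition of steady-state ATPase read at 340 nm through a PK/LDH-coupled NADH system (0.5 mM NADH, 1.5 mM PEP). Detergent-skinned bovine cardiac myofibrils, 1 mg/mL, were tested at pH 6.8 in PIPES/MgCl2 with 50 μM ATP and calcium adjusted to give pCa50 or pCa75 activation.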

Chain of bovine cardiac myofibrils (full-length cardiac myosin ATPase in the native sarcomere) (Q9BE39 whole entry): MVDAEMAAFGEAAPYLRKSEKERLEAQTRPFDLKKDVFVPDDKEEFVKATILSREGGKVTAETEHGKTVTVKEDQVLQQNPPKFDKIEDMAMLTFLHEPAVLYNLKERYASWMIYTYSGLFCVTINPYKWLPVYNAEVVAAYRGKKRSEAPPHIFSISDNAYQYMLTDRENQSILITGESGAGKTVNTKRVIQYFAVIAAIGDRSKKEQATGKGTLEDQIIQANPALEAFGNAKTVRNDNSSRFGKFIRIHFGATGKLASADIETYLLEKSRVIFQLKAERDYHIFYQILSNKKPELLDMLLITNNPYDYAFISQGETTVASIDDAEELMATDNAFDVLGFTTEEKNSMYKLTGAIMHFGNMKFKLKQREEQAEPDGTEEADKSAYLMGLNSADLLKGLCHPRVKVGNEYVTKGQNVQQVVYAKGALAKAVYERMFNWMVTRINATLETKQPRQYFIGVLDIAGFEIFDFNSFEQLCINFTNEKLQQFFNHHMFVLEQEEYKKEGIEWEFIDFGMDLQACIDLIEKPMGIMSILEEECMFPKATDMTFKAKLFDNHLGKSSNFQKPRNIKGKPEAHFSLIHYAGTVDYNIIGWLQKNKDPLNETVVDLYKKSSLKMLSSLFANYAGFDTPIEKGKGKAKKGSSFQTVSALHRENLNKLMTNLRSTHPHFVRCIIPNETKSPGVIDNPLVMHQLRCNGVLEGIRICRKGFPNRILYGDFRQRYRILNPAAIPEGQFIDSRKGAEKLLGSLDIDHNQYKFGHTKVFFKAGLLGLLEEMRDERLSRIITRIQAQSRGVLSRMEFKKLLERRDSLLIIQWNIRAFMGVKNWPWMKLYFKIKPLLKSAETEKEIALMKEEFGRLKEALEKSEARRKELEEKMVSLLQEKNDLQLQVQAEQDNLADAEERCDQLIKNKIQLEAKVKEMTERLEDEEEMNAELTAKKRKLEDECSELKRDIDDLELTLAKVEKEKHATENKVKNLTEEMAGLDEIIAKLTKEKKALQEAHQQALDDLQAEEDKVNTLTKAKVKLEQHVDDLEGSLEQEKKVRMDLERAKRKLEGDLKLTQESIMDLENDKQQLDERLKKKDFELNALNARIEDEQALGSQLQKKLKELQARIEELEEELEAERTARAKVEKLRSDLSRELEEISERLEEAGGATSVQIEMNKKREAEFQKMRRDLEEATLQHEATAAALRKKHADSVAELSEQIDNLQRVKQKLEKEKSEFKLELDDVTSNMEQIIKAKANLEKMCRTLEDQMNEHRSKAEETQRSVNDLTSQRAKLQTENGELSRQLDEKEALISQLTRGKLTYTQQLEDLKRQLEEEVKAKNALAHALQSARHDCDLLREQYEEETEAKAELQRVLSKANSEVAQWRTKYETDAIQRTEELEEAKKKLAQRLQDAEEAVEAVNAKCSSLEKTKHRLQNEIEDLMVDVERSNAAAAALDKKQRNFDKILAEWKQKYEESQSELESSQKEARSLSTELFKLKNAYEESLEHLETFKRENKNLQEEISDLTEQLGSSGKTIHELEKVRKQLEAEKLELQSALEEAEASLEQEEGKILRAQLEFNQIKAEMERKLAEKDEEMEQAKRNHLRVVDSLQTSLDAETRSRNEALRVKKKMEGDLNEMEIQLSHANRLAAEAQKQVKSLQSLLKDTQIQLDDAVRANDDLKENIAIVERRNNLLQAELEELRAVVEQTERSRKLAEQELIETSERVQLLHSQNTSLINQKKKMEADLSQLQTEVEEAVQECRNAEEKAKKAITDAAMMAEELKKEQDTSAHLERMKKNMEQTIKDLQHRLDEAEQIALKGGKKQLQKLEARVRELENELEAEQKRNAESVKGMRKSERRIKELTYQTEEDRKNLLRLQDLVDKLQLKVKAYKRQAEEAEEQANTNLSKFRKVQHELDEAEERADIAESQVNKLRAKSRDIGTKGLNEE
Chain of bovine cardiac myofibrils (full-length cardiac myosin ATPase in the native sarcomere) (P85100 whole entry partner): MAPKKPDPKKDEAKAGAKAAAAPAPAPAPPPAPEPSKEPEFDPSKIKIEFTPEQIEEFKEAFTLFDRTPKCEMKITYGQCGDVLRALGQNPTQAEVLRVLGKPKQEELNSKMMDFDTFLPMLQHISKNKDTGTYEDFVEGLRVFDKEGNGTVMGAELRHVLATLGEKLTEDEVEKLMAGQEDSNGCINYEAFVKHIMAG
Chain of bovine cardiac myofibrils (full-length cardiac myosin ATPase in the native sarcomere) (Q3SZE5 whole entry partner): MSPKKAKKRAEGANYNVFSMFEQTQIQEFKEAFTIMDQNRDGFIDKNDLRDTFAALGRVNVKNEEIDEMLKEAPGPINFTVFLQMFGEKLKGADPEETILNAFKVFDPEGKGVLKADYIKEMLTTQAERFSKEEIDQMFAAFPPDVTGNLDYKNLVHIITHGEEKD

Question: Which “CDMF75 IC15” value does the source give for CCc1nc(-c2ccc3c(c2)CC[C@H]3NC(=O)c2cc(C)on2)no1 [Compound 569, (R)-N-(5-(5-ethyl-1,2,4-oxadiazol-3-yl)-2,3-dihydro-1H-inden-1-yl)-5-methylisoxazole-3-carboxamide] here?
Answer: 700 nM

Question: What about the IC50 of the same compound?
Answer: 2800 nM

Question: For CCc1nc(-c2ccc3c(c2)CC[C@H]3NC(=O)c2cnn(C)c2C)no1 [Compound 570, (R)-N-(5-(5-ethyl-1,2,4-oxadiazol-3-yl)-2,3-dihydro-1H-inden-1-yl)-1,5-dimethyl-1H-pyrazole-4-carboxamide], which “CDMF75 IC15” value is on record?
Answer: 400 nM

Question: And the IC50?
Answer: 1400 nM

Question: Which “CDMF75 IC15” value does the source give for CCc1nc(-c2ccc3c(c2)CC[C@H]3NC(=O)c2cnn(C)c2C)no1 [Compound 571, (R)-N-(5-(5-ethyl-1,2,4-oxadiazol-3-yl)-2,3-dihydro-1H-inden-1-yl)-1,5-dimethyl-1H-pyrazole-4-carboxamide] here?
Answer: 400 nM

Question: And the IC50?
Answer: 1300 nM

Question: How did the “CDMF75 IC15” value turn out when CCc1nc(-c2ccc3c(c2)CC[C@H]3NC(=O)c2cnn(CCO)c2C)no1 [Compound 572, (R)-N-(5-(5-ethyl-1,2,4-oxadiazol-3-yl)-2,3-dihydro-1H-inden-1-yl)-1-(2-hydroxyethyl)-5-methyl-1H-pyrazole-4-carboxamide] was run?
Answer: 500 nM

Question: And the IC50?
Answer: 1800 nM

Question: What does the source list for CCOCCn1cc(C(=O)N[C@@H]2CCc3cc(-c4noc(CC)n4)ccc32)cn1 [Compound 573, (R)-1-(2-ethoxyethyl)-N-(5-(5-ethyl-1,2,4-oxadiazol-3-yl)-2,3-dihydro-1H-inden-1-yl)-1H-pyrazole-4-carboxamide]?
Answer: CDMF75 IC15: 900 nM; IC50: 4100 nM

Question: How did the “CDMF75 IC15” value turn out when CCc1nc(-c2ccc3c(c2)CC[C@H]3NC(=O)c2cnn(CCOC)c2C)no1 [Compound 574, (R)-N-(5-(5-ethyl-1,2,4-oxadiazol-3-yl)-2,3-dihydro-1H-inden-1-yl)-1-(2-methoxyethyl)-5-methyl-1H-pyrazole-4-carboxamide] was run?
Answer: 1000 nM

Question: What about the IC50 of the same compound?
Answer: 4200 nM

Question: With CCc1nc(-c2ccc3c(c2)CC[C@H]3NC(=O)c2cnn(CCOC)c2C)no1 [Compound 575, (R)-N-(5-(5-ethyl-1,2,4-oxadiazol-3-yl)-2,3-dihydro-1H-inden-1-yl)-1-(2-methoxyethyl)-5-methyl-1H-pyrazole-4-carboxamide] as the compound, how does the “CDMF75 IC15” value read?
Answer: 1100 nM

Question: What about the IC50 of the same compound?
Answer: 4200 nM

Question: Which results are given for C[C@@H](O)Cn1cc(C(=O)N[C@@H]2CCc3cc(-c4noc(C5CC5)n4)ccc32)cn1 [Compound 576, N-((R)-5-(5-cyclopropyl-1,2,4-oxadiazol-3-yl)-2,3-dihydro-1H-inden-1-yl)-1-((R)-2-hydroxypropyl)-1H-pyrazole-4-carboxamide]?
Answer: CDMF75 IC15: 3500 nM; IC50: 15200 nM

Question: Which results are given for CCc1nc(-c2ccc3c(c2)CC[C@H]3NC(=O)c2ccnc(C(F)F)c2)no1 [Compound 578, (R)-2-(difluoromethyl)-N-(5-(5-ethyl-1,2,4-oxadiazol-3-yl)-2,3-dihydro-1H-inden-1-yl)isonicotinamide]?
Answer: CDMF75 IC15: 400 nM; IC50: 1200 nM

Question: How did the “CDMF75 IC15” value turn out when CCc1nc(-c2ccc3c(c2)CC[C@H]3NC(=O)c2nccn2C)no1 [Compound 579, (R)-N-(5-(5-ethyl-1,2,4-oxadiazol-3-yl)-2,3-dihydro-1H-inden-1-yl)-1-methyl-1H-imidazole-2-carboxamide] was run?
Answer: 1200 nM

Question: And the IC50?
Answer: 5100 nM

Question: What does the source list for CCc1nc(-c2ccc3c(c2)CC[C@H]3NC(=O)c2cc(C)n(C)n2)no1 [Compound 580, (R)-N-(5-(5-ethyl-1,2,4-oxadiazol-3-yl)-2,3-dihydro-1H-inden-1-yl)-1,5-dimethyl-1H-pyrazole-3-carboxamide]?
Answer: CDMF75 IC15: 3100 nM; IC50: 17600 nM

Question: Which “CDMF75 IC15” value does the source give for CCc1nc(-c2ccc3c(c2)CC[C@H]3NC(=O)c2ccno2)no1 [Compound 581, (R)-N-(5-(5-ethyl-1,2,4-oxadiazol-3-yl)-2,3-dihydro-1H-inden-1-yl)isoxazole-5-carboxamide] here?
Answer: 400 nM

Question: And the IC50?
Answer: 1400 nM

Question: For CCc1nc(-c2ccc3c(c2)CC[C@H]3NC(=O)c2ccno2)no1 [Compound 582, (R)-N-(5-(5-ethyl-1,2,4-oxadiazol-3-yl)-2,3-dihydro-1H-inden-1-yl)isoxazole-5-carboxamide], which “CDMF75 IC15” value is on record?
Answer: 400 nM

Question: What about the IC50 of the same compound?
Answer: 1300 nM

Question: CCc1nc(-c2ccc3c(c2)CC[C@H]3NC(=O)c2cnco2)no1 [Compound 583, (R)-N-(5-(5-ethyl-1,2,4-oxadiazol-3-yl)-2,3-dihydro-1H-inden-1-yl)oxazole-5-carboxamide] was tested. Which “CDMF75 IC15” value did it give?
Answer: 400 nM

Question: What about the IC50 of the same compound?
Answer: 1300 nM

Question: CCc1nc(-c2ccc3c(c2)CC[C@H]3NC(=O)c2cnco2)no1 [Compound 584, (R)-N-(5-(5-ethyl-1,2,4-oxadiazol-3-yl)-2,3-dihydro-1H-inden-1-yl)oxazole-5-carboxamide] was tested. Which “CDMF75 IC15” value did it give?
Answer: 300 nM

Question: And the IC50?
Answer: 1200 nM

Question: With CCc1nc(-c2ccc3c(c2)CC[C@H]3NC(=O)c2ccon2)no1 [Compound 585, (R)-N-(5-(5-ethyl-1,2,4-oxadiazol-3-yl)-2,3-dihydro-1H-inden-1-yl)isoxazole-3-carboxamide] as the compound, how does the “CDMF75 IC15” value read?
Answer: 500 nM

Question: And the IC50?
Answer: 2500 nM

Question: How did the “CDMF75 IC15” value turn out when CCc1nc(-c2ccc3c(c2)CC[C@H]3NC(=O)c2ccon2)no1 [Compound 586, (R)-N-(5-(5-ethyl-1,2,4-oxadiazol-3-yl)-2,3-dihydro-1H-inden-1-yl)isoxazole-3-carboxamide] was run?
Answer: 500 nM

Question: And the IC50?
Answer: 2300 nM

Question: Which “CDMF75 IC15” value does the source give for CCc1nc(-c2ccc3c(c2)CC[C@H]3NC(=O)c2cocn2)no1 [Compound 587, (R)-N-(5-(5-ethyl-1,2,4-oxadiazol-3-yl)-2,3-dihydro-1H-inden-1-yl)oxazole-4-carboxamide] here?
Answer: 2500 nM

Question: What about the IC50 of the same compound?
Answer: 12900 nM

Question: CCc1nc(-c2cc(Cl)c3c(c2)CC[C@H]3NC(=O)c2cnn(C)c2)no1 [Compound 588, (R)-N-(7-chloro-5-(5-ethyl-1,2,4-oxadiazol-3-yl)-2,3-dihydro-1H-inden-1-yl)-1-methyl-1H-pyrazole-4-carboxamide] was tested. Which “CDMF75 IC15” value did it give?
Answer: 1200 nM

Question: What about the IC50 of the same compound?
Answer: 4300 nM

Question: CCc1nc(-c2ccc3c(c2)CC[C@H]3NC(=O)c2csc(C)n2)no1 [Compound 590, (R)-N-(5-(5-ethyl-1,2,4-oxadiazol-3-yl)-2,3-dihydro-1H-inden-1-yl)-2-methylthiazole-4-carboxamide] was tested. Which “CDMF75 IC15” value did it give?
Answer: 1400 nM

Question: What about the IC50 of the same compound?
Answer: 6800 nM

Question: CCc1nc(-c2ccc3c(c2)CC[C@H]3NC(=O)Cc2ccccc2)no1 [Compound 591, (R)-N-(5-(5-ethyl-1,2,4-oxadiazol-3-yl)-2,3-dihydro-1H-inden-1-yl)-2-phenylacetamide] was tested. Which “CDMF75 IC15” value did it give?
Answer: 4400 nM

Question: What about the IC50 of the same compound?
Answer: 9800 nM

Question: Which “CDMF75 IC15” value does the source give for CCc1nc(-c2ccc3c(c2)CC[C@H]3NC(=O)c2ccn(C)n2)no1 [Compound 592, (R)-N-(5-(5-ethyl-1,2,4-oxadiazol-3-yl)-2,3-dihydro-1H-inden-1-yl)-1-methyl-1H-pyrazole-3-carboxamide] here?
Answer: 2700 nM

Question: What about the IC50 of the same compound?
Answer: 10900 nM

Question: With CCc1nc(-c2ccc3c(c2)CC[C@H]3NC(=O)c2ncco2)no1 [Compound 593, (R)-N-(5-(5-ethyl-1,2,4-oxadiazol-3-yl)-2,3-dihydro-1H-inden-1-yl)oxazole-2-carboxamide] as the compound, how does the “CDMF75 IC15” value read?
Answer: 500 nM

Question: What about the IC50 of the same compound?
Answer: 2100 nM

Question: CCc1nc(-c2ccc3c(c2)CC[C@H]3NC(=O)c2cccc(C)n2)no1 [Compound 594, (R)-N-(5-(5-ethyl-1,2,4-oxadiazol-3-yl)-2,3-dihydro-1H-inden-1-yl)-6-methylpicolinamide] was tested. Which “CDMF75 IC15” value did it give?
Answer: 1400 nM

Question: What about the IC50 of the same compound?
Answer: 5800 nM

Question: What does the source list for CCc1nc(-c2ccc3c(c2)CC[C@H]3NC(=O)c2cnc(C)s2)no1 [Compound 595, (R)-N-(5-(5-ethyl-1,2,4-oxadiazol-3-yl)-2,3-dihydro-1H-inden-1-yl)-2-methylthiazole-5-carboxamide]?
Answer: CDMF75 IC15: 300 nM; IC50: 1000 nM

Question: CCc1nc(-c2ccc3c(c2)CC[C@H]3NC(=O)c2cn(CCOC)nc2C)no1 [Compound 596, (R)-N-(5-(5-ethyl-1,2,4-oxadiazol-3-yl)-2,3-dihydro-1H-inden-1-yl)-1-(2-methoxyethyl)-3-methyl-1H-pyrazole-4-carboxamide] was tested. Which “CDMF75 IC15” value did it give?
Answer: 800 nM

Question: What about the IC50 of the same compound?
Answer: 2500 nM

Question: What does the source list for CCc1nc(-c2ccc3c(c2)CC[C@H]3NC(=O)c2cn(CCO)nc2C)no1 [Compound 597, (R)-N-(5-(5-ethyl-1,2,4-oxadiazol-3-yl)-2,3-dihydro-1H-inden-1-yl)-1-(2-hydroxyethyl)-3-methyl-1H-pyrazole-4-carboxamide]?
Answer: CDMF75 IC15: 500 nM; IC50: 1900 nM

Question: With CCc1nc(-c2ccc3c(c2)CC[C@H]3NC(=O)c2cnn(CCCOC)c2C)no1 [Compound 598, (R)-N-(5-(5-ethyl-1,2,4-oxadiazol-3-yl)-2,3-dihydro-1H-inden-1-yl)-1-(3-methoxypropyl)-5-methyl-1H-pyrazole-4-carboxamide] as the compound, how does the “CDMF75 IC15” value read?
Answer: 3900 nM

Question: What about the IC50 of the same compound?
Answer: 15700 nM

Question: COCCCn1cc(C(=O)N[C@@H]2CCc3cc(-c4noc(C5CC5)n4)ccc32)cn1 [Compound 600, (R)-N-(5-(5-cyclopropyl-1,2,4-oxadiazol-3-yl)-2,3-dihydro-1H-inden-1-yl)-1-(3-methoxypropyl)-1H-pyrazole-4-carboxamide] was tested. Which “CDMF75 IC15” value did it give?
Answer: 3500 nM

Question: What about the IC50 of the same compound?
Answer: 16500 nM

Question: How did the “CDMF75 IC15” value turn out when O=C(N[C@@H]1CCc2cc(-c3noc(C4CC4)n3)ccc21)c1cnn(CCCO)c1 [Compound 601, (R)-N-(5-(5-cyclopropyl-1,2,4-oxadiazol-3-yl)-2,3-dihydro-1H-inden-1-yl)-1-(3-hydroxypropyl)-1H-pyrazole-4-carboxamide] was run?
Answer: 1600 nM

Question: And the IC50?
Answer: 7300 nM

Question: Which results are given for CCc1nc(-c2ccc3c(c2)CC[C@H]3NC(=O)c2ccn(CCOC)n2)no1 [Compound 602, (R)-N-(5-(5-ethyl-1,2,4-oxadiazol-3-yl)-2,3-dihydro-1H-inden-1-yl)-1-(2-methoxyethyl)-1H-pyrazole-3-carboxamide]?
Answer: CDMF75 IC15: 4100 nM; IC50: 16900 nM
